Test results from US4088772A, “Methanodibenzocycloheptapyrroles” (E. I. Du Pont de Nemours and Company, priority 1975, dated 1978).
Structures can show the parent of a compound that is named as a salt. Where two headings read alike, the source gives them in different places.

Tests used:
in vivo = conditions: mouse, in vivo, po
female white mice = experiment: animal or person; conditions: oral, mice; for ED50: Mus musculus, po
[1] = test system: phenylquinone-induced writhing; experiment: Phenylquinone writhing test (analgesia); type: in vivo, mouse (Carworth CF1 S female); conditions: for ED50: Mus musculus
Text: This mouse test is predictive of analgesic response in humans. [E. Siegmund, R. Cadmus and G. Lee, Proc. Soc.
ED50 values were obtained graphically from the data.

[2] = read-out: Catatonia ED50, Table III
[3] = read-out: Exploratory Loss Visual ED50, Table III
[4] = read-out: Muscle Tone ED50, Table III
[5] = read-out: Ptosis ED50, Table III
[6] = read-out: Reflexes Grip ED50, Table III
[7] = read-out: Reflexes Lift ED50, Table III
[8] = read-out: Reflexes Pinna ED50, Table III
[9] = read-out: Catatonia ED50, Table 1
[10] = read-out: Exploratory Loss Visual ED50, Table 1
[11] = read-out: Muscle Tone ED50, Table 1
[12] = read-out: Reflexes Grip ED50, Table 1
[13] = read-out: Reflexes Lift ED50, Table 1
[14] = read-out: Reflexes Pinna ED50, Table 1

Structure (SMILES) | LD50 at 24 h (in vivo) | ED50 (female white mice; [2]) | ED50 (female white mice; [3]) | ED50 (female white mice; [4]) | ED50 (female white mice; [5]) | ED50 (female white mice; [6]) | ED50 (female white mice; [7]) | ED50 (female white mice; [8]) | ED50 ([1]; po, Table III, mice) | ED50 (female white mice; [9]) | ED50 (female white mice; [10]) | ED50 (female white mice; [11]) | ED50 (female white mice; read-out: Ptosis ED50, Table 1) | ED50 (female white mice; [12]) | ED50 (female white mice; [13]) | ED50 (female white mice; [14]) | ED50 (in vivo; Tremors ED50, Table 1, mice) | ED50 ([1]; Table 1, oral, mice) | further results
OCc1ccc2c(c1)[C@]13C[C@H]2c2ccccc2[C@H]1CN(CC1CCCC1)C3 (relative stereo) [Example 86, 2-Cyclopentylmethyl-2,3,8,12b-tetrahydro-1H-3a,8-methanodibenzo[3,4:6,7]cyclohepta[1,2-c]pyrrole-5-methanol Hydrochloride] | > 324 mg/kg | 60 mg/kg | 12 mg/kg | 60 mg/kg | 7 mg/kg | 200 mg/kg | 36 mg/kg | 20 mg/kg | 26 mg/kg | – | – | – | – | – | – | – | – | – | –
O=C(O)c1ccc2c(c1)[C@]13C[C@H]2c2ccccc2[C@H]1CN(CC1CCCC1)C3 (relative stereo) [Example 73, 2-Cyclopentylmethyl-2,3,8,12b-tetrahydro-1H-3a,8-methanodibenzo[3,4:6,7]cyclohepta[1,2-c]pyrrole-5-carboxylic Acid Hydrochloride] | > 324 mg/kg | 60 mg/kg | 60 mg/kg | 36 mg/kg | 36 mg/kg | > 324 mg/kg | 100 mg/kg | 36 mg/kg | 21 mg/kg | – | – | – | – | – | – | – | – | – | –
O=Cc1ccc2c(c1)[C@]13C[C@H]2c2ccccc2[C@H]1CN(CC1CCCC1)C3 (relative stereo) [Example 69, 5-Formyl-2-cyclopentylmethyl-2,3,8,12b-tetrahydro-1H-3a,8-methanodibenzo[3,4:6,7]cyclohepta[1,2-c]pyrrole Hydrochloride] | > 324 mg/kg | 60 mg/kg | 60 mg/kg | 60 mg/kg | 36 mg/kg | > 324 mg/kg | 60 mg/kg | 20 mg/kg | < 130 mg/kg | – | – | – | – | – | – | – | – | – | –
CC(=O)c1ccc2c(c1)[C@]13C[C@H]2c2ccccc2[C@H]1CN(CC1CCCC1)C3 (relative stereo) [Example 66, 5-Acetyl-2-cyclopentylmethyl-2,3,8,12b-tetrahydro-1H3a,8-methanodibenzo[3,4:6,7]cyclohepta[1,2-c]pyrrole Hydrochloride] | > 324 mg/kg | 12 mg/kg | 7 mg/kg | 12 mg/kg | < 4 mg/kg | 300 mg/kg | 20 mg/kg | 12 mg/kg | 3.1 mg/kg | – | – | – | – | – | – | – | – | – | –
c1ccc2c(c1)[C@@H]1C[C@@]3(CN(CC4C5CC6CC(C5)CC4C6)C[C@H]23)c2ccccc21 (relative stereo) [Example 53, 2-(2-Adamantylmethyl)-2,3,8,12b-tetrahydro-1H-3a,8-methanodibenzo[3,4:6,7]cyclohepta[1,2-c]pyrrole] | > 324 mg/kg | – | – | – | – | – | – | – | – | 36 mg/kg | 60 mg/kg | 100 mg/kg | 300 mg/kg | > 324 mg/kg | 300 mg/kg | 100 mg/kg | – | – | ED50 (in vivo): > 524 mg/kg; ED50 ([1]; po, Table 1, mice): 94 mg/kg
C1=CCCC(CN2C[C@@H]3c4ccccc4[C@@H]4C[C@@]3(C2)c2ccccc24)CC1 (relative stereo) [Example 33, 2-(4-Cycloheptenylmethyl)-2,3,8,12b-tetrahydro-1H-3a,8-methanodibenzo[3,4:6,7]cyclohepta[1,2-c]pyrrole] | > 324 mg/kg | – | – | – | – | – | – | – | – | 11 mg/kg | 9 mg/kg | 7 mg/kg | 4 mg/kg | > 324 mg/kg | 19 mg/kg | 37 mg/kg | – | – | ED50 (in vivo): > 324 mg/kg; ED50 ([1]; po, Table 1, mice): 3.3 mg/kg
c1ccc2c(c1)[C@@H]1C[C@@]3(CN(C4CCC4)C[C@H]23)c2ccccc21 (relative stereo) [Example 47, 2-Cyclobutyl-2,3,8,12b-tetrahydro-1H-3a,8-methanodibenzo[3,4:6,7]cyclohepta[1,2-c]pyrrole] | > 324 mg/kg | – | – | – | – | – | – | – | – | 60 mg/kg | 60 mg/kg | 60 mg/kg | 36 mg/kg | 200 mg/kg | 60 mg/kg | 36 mg/kg | > 324 mg/kg | 9.6 mg/kg | –
CC(O)c1ccc2c(c1)[C@]13C[C@H]2c2ccccc2[C@H]1CN(CC1CCCC1)C3 (stereo partly drawn) [Example 67, 5-(α-Hydroxyethyl)-2-cyclopentylmethyl-2,3,8,12b-tetrahydro-1H-3a,8-methanodibenzo[3,4:6,7]cyclohepta[1,2-c]-pyrrole Hydrochloride] | > 450 mg/kg | 5 mg/kg | 5 mg/kg | 6 mg/kg | 3.6 mg/kg | 187 mg/kg | 21 mg/kg | 5.6 mg/kg | 3.4 mg/kg | – | – | – | – | – | – | – | – | – | –
CC(C)(C)N1C[C@@H]2c3ccccc3[C@@H]3C[C@@]2(C1)c1ccccc13 (relative stereo) [Example 56, 2-Tertiarybutyl-2,3,8,12b-tetrahydro-1H-3a,8-methanodibenzo[3,4:6,7]cyclohepta[1,2-c]pyrrole] | 300 mg/kg | – | – | – | – | – | – | – | – | 200 mg/kg | 200 mg/kg | 100 mg/kg | 100 mg/kg | 100 mg/kg | 60 mg/kg | 200 mg/kg | 200 mg/kg | 45 mg/kg | –
c1ccc([C@@H]2C[C@H]2CN2CC3c4ccccc4C4CC3(C2)c2ccccc24)cc1 (relative stereo) [Example 55, 2-(trans-2-Phenylcyclopropylmethyl)-2,3,8,12 b-tetrahydro-1H-3a,8-methanodibenzo[3,4:6,7]cyclohepta[1,2-c]pyrrole] | > 324 mg/kg | – | – | – | – | – | – | – | – | 200 mg/kg | 100 mg/kg | 100 mg/kg | 36 mg/kg | > 324 mg/kg | 200 mg/kg | 200 mg/kg | – | – | ED50 (in vivo): > 324 mg/kg; ED50 ([1]; po, Table 1, mice): 48 mg/kg
COC(=O)c1ccc2c(c1)[C@]13C[C@H]2c2ccccc2[C@H]1CN(CC1CCCC1)C3 (relative stereo) [Example 74, 2-Cyclopentylmethyl-2,3,8,12b-tetrahydro-1H-3a,8-methanodibenzo[3,4:6,7]cyclohepta[1,2-c]pyrrole-5-carboxylic Acid Hydrochloride, Methyl Ester] | > 324 mg/kg | 36 mg/kg | 36 mg/kg | 36 mg/kg | < 4 mg/kg | > 324 mg/kg | 36 mg/kg | 7 mg/kg | 11 mg/kg | – | – | – | – | – | – | – | – | – | –
CCCCN1CC2c3ccccc3C3CC2(C1)c1ccccc13 (stereo not shown) [Example 13, 2-n-Butyl-2,3,8,12b-tetrahydro-1H-3a,8-methanodibenzo[3,4:6,7]cyclohepta[1,2-c]pyrrole] | > 324 mg/kg | – | – | – | – | – | – | – | – | 12 mg/kg | 12 mg/kg | 12 mg/kg | 7 mg/kg | 200 mg/kg | 7 mg/kg | ≤ 4 mg/kg | 300 mg/kg | 10.5 mg/kg | –
CN1CC2c3ccccc3C3CC2(C1)c1ccccc13 (stereo not shown) [Example 1, 2-Methyl-2,3,8,12b-tetrahydro-1H-3a,8-methanodibenzo[3,4:6,7]cyclohepta[1,2-c]pyrrole] | 150 mg/kg | – | – | – | – | – | – | – | – | 30 mg/kg | 50 mg/kg | 100 mg/kg | 50 mg/kg | 150 mg/kg | 30 mg/kg | 30 mg/kg | 30 mg/kg | 5.1 mg/kg | –
CC(C)CCN1C[C@@H]2c3ccccc3[C@@H]3C[C@@]2(C1)c1ccccc13 (relative stereo) [Example 60, 2-(3-Methylbutyl)-2,3,8,12b-tetrahydro-1H-3a, 8-methanodibenzo[3,4:6,7]cyclohepta[1,2-c]pyrrole] | > 324 mg/kg | – | – | – | – | – | – | – | – | 20 mg/kg | 20 mg/kg | 20 mg/kg | 36 mg/kg | 200 mg/kg | 60 mg/kg | 36 mg/kg | – | 15 mg/kg | –
c1ccc2c(c1)C1CC3(CN(CC4CCCC4)CC23)c2ccccc21 (single isomer, unassigned; (-)) [(-)-Cyclopentylmethyl, 2-Cyclopentylmethyl-2,3,8,12b-tetrahydro-trans-1H,-3a,8-methanodibenzo[3,4:6,7]cyclohepta[1,2-c]pyrrole] | > 324 mg/kg | – | – | – | – | – | – | – | – | – | – | – | – | 200 mg/kg | – | – | – | – | ED50 (in vivo): > 324 mg/kg; Catatonia ED50 (female white mice; Table 1): 7 mg/kg; Exploratory Loss Visual ED50 (female white mice; Table 1): < 4 mg/kg; Muscle Tone ED50 (female white mice; Table 1): < 4 mg/kg; Ptosis ED50 (female white mice; Table 1): < 4 mg/kg; Reflexes Lift ED50 (female white mice; Table 1): 4 mg/kg; Reflexes Pinna ED50 (female white mice; Table 1): 4 mg/kg; Phenylquinone Analgesia ED50 ([1]; Table 1, oral, mice): 1.2 mg/kg
C#CCN1CC2c3ccccc3C3CC2(C1)c1ccccc13 (stereo not shown) [Example 18, 2-Propargyl-2,3,8,12b-tetrahydro-1H-3a,8-methanodibenzo[3,4:6,7]cyclohepta[1,2-c]pyrrole] | > 324 mg/kg | – | – | – | – | – | – | – | – | 100 mg/kg | 200 mg/kg | 300 mg/kg | 200 mg/kg | > 324 mg/kg | 200 mg/kg | > 324 mg/kg | > 324 mg/kg | > 135 mg/kg | –
CC(C)N1C[C@@H]2c3ccccc3[C@@H]3C[C@@]2(C1)c1ccccc13 (relative stereo) [Example 49, 2-Isopropyl-2,3,8,12b-tetrahydro-1H-3a, 8-methanodibenzo[3,4:6,7]cyclohepta[1,2-c]pyrrole] | 200 mg/kg | – | – | – | – | – | – | – | – | 60 mg/kg | 60 mg/kg | 7 mg/kg | 12 mg/kg | 200 mg/kg | 36 mg/kg | 20 mg/kg | > 324 mg/kg | 10.8 mg/kg | –
